According to US20260137706A1, “METHODS OF TREATING INFLAMMATORY DISEASES” (INTERLINE THERAPEUTICS, INC., priority 2023, published 2026):
Read-outs that look alike come from different tables or passages of the source.

How the values were obtained:
[1] = biological target: T1, GST-RIPK2 fusion protein (human RIPK2, amino acids 1-310) (Homo sapiens, UniProt O43353); assay: RIPK2 binding competition assay (TR-FRET, Tracer 199 displacement); conditions: 10 nM Tracer 199, 1 nM GST-RIPK2, read-out: RIPK2 IC50
T1 construct: made in house; host or cells: baculovirus infected Sf9 cells
T1 sequence (O43353 1-310): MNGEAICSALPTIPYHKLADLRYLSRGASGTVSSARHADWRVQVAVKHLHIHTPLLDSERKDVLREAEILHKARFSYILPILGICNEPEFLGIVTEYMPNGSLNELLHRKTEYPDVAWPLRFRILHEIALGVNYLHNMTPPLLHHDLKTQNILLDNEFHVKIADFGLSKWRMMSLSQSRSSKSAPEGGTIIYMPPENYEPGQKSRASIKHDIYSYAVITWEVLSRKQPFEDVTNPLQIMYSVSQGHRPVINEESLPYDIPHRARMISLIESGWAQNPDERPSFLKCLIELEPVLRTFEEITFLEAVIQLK
Outline: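 IC50 derived from the TR-FRET emission ratio (665/620 nm, 337 nm excitation), normalized with no-inhibitor and no-enzyme controls. Incubation 45 min at 22 °C, pH 7.5 Tris buffer, with final 10 nM tracer, 1 nM Sf9-expressed GST-RIPK2 fragment (aa 1-310) and 0.5 nM Tb-labelled anti-GST.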

[2] = biological target: T2, binding of His-XIAP(BIR2)-avi fusion protein to GST-RIPK2 fusion protein (RIPK2/XIAP) (Homo sapiens, UniProt O43353); assay: RIPK2-XIAP binding competition PPI assay (TR-FRET); conditions: for Emax: read-out: PPI Amax bin; for IC50: read-out: PPI IC50 bin
T2 construct: made in house; host or cells: baculovirus infected Sf9 cells
T2 sequence (O43353 1-310 limits assumed): as the sequence (O43353 1-310) above
Outline: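 Compounds (in DMSO, 100-fold stock) incubated 120 min at 23 °C with 1 nM GST-RIPK2 (aa 1-310) and 25 nM His-XIAP(BIR2 aa 152-231)-avi, plus anti-His-XL665 and anti-GST-Tb, in pH 7.5 Tris buffer. Read-out: 665/520 nm emission ratio. Normalized to no-inhibitor (0%) and 50 nM GSK583 (−100%); Amax binned A–D.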

[3] = system: NF-κB pathway (SEAP) in THP1-Dual cells; assay: THP-1 Dual cell SEAP assay (L18-MDP stimulated); assay type: cell-based; conditions: Homo sapiens, THP1-Dual, read-out: NF-κB THP1 IC50 bin
Outline: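 IC50 values derive from non-linear regression of % inhibition, calculated against DMSO/L18-MDP-treated wells after media-only subtraction. NF-κB SEAP activity was read at OD 620-655 nm (QUANTI-Blue, 2 h, 37 °C) from supernatants of THP1-Dual cells. Cells had been compound-treated 30 min before overnight (20-24 h) stimulation with 10 ng/mL final L18-MDP.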

[4] = RIPK2/XIAP binding competition PPI assay, Amax
[5] = RIPK2/XIAP binding competition PPI assay

Row | Structure (SMILES) | IC50 [1] | Emax [2, 4] | IC50 [2, 5] | IC50 [3] | Emax [2]
1 | COc1cc2ncc(-c3cc(F)c(OC)c(NS(=O)(=O)C4COC4)c3)n2cc1S(=O)(=O)C(C)(C)C [Example 142, N-(5-(6-(tert-butylsulfonyl)-7-methoxyimidazo[1,2-a]pyridin-3-yl)-3-fluoro-2-methoxyphenyl)oxetane-3-sulfonamide] | 1 to 2.5 nM | > 80% | 1 to 2.5 nM | 250 to 1000 nM | 
2 | COc1cc2ncc(-c3cc(F)c(OC)c(NS(=O)(=O)CC(F)(F)F)c3)n2cc1S(=O)(=O)C(C)(C)C [Example 143, N-(5-(6-(tert-butylsulfonyl)-7-methoxyimidazo[1,2-a]pyridin-3-yl)-3-fluoro-2-methoxyphenyl)-2,2,2-trifluoroethane-1-sulfonamide] | 1 to 2.5 nM | 55 to 80% | 1 to 2.5 nM | 250 to 1000 nM | 
3 | C=CS(=O)(=O)Nc1cc(-c2cnc3cc(OC)c(S(=O)(=O)C(C)(C)C)cn23)cc(OC)c1OC [Example 144, N-(5-(6-(tert-butylsulfonyl)-7-methoxyimidazo[1,2-a]pyridin-3-yl)-2,3-dimethoxyphenyl)ethenesulfonamide] | 1 to 2.5 nM | > 80% | < 1 nM | < 50 nM | 
4 | COc1cc2ncc(-c3cc(F)c(OC)c(NS(=O)(=O)C4CCC4)c3)n2cc1S(=O)(=O)C(C)(C)C [Example 145, N-(5-(6-(tert-butylsulfonyl)-7-methoxyimidazo[1,2-a]pyridin-3-yl)-3-fluoro-2-methoxyphenyl)cyclobutanesulfonamide] | < 1 nM | > 80% | < 1 nM | < 50 nM | 
5 | COc1cc2ncc(-c3cccc(NS(=O)(=O)C4CC4)c3)n2cc1S(=O)(=O)C(C)(C)C [Example 146, N-(3-(6-(tert-butylsulfonyl)-7-methoxyimidazo[1,2-a]pyridin-3-yl)phenyl)cyclopropanesulfonamide] | 2.5 to 20 nM | > 80% | 2.5 to 20 nM | > 1000 nM | 
6 | COc1cc2ncc(-c3cccc(NS(=O)(=O)C4CCOCC4)c3)n2cc1S(=O)(=O)C(C)(C)C [Example 147, N-(3-(6-(tert-butylsulfonyl)-7-methoxyimidazo[1,2-a]pyridin-3-yl)phenyl)tetrahydro-2H-pyran-4-sulfonamide] | 2.5 to 20 nM | > 80% | 2.5 to 20 nM | 250 to 1000 nM | 
7 | COc1cc2ncc(-c3cccc(NS(=O)(=O)C4CCOC4)c3)n2cc1S(=O)(=O)C(C)(C)C (centres unmarked) [Example 148, N-(3-(6-(tert-butylsulfonyl)-7-methoxyimidazo[1,2-a]pyridin-3-yl)phenyl)tetrahydrofuran-3-sulfonamide] | 2.5 to 20 nM | > 80% | 2.5 to 20 nM | > 1000 nM | 
8 | COc1cc2ncc(-c3cccc(NS(=O)(=O)C4(C)CC4)c3)n2cc1S(=O)(=O)C(C)(C)C [Example 149, N-(3-(6-(tert-butylsulfonyl)-7-methoxyimidazo[1,2-a]pyridin-3-yl)phenyl)-1-methylcyclopropane-1-sulfonamide] | 2.5 to 20 nM | > 80% | 2.5 to 20 nM | > 1000 nM | 
9 | COc1cc2ncc(-c3cccc(NS(=O)(=O)C4COC4)c3)n2cc1S(=O)(=O)C(C)(C)C [Example 150, N-(3-(6-(tert-butylsulfonyl)-7-methoxyimidazo[1,2-a]pyridin-3-yl)phenyl)oxetane-3-sulfonamide] | 2.5 to 20 nM | > 80% | 2.5 to 20 nM | > 1000 nM | 
10 | COc1cc2ncc(-c3cccc(NS(=O)(=O)CC4CC4)c3)n2cc1S(=O)(=O)C(C)(C)C [Example 151, N-(3-(6-(tert-butylsulfonyl)-7-methoxyimidazo[1,2-a]pyridin-3-yl)phenyl)-1-cyclopropylmethanesulfonamide] | 1 to 2.5 nM | > 80% | 1 to 2.5 nM | 250 to 1000 nM | 
11 | COc1cc2ncc(-c3cccc(NS(=O)(=O)C4CCC4)c3)n2cc1S(=O)(=O)C(C)(C)C [Example 152, N-(3-(6-(tert-butylsulfonyl)-7-methoxyimidazo[1,2-a]pyridin-3-yl)phenyl)cyclobutanesulfonamide] | 2.5 to 20 nM | > 80% | 2.5 to 20 nM | 250 to 1000 nM | 
12 | COc1cc2ncc(-c3cccc(NS(=O)(=O)C4CCN(C(=O)OC(C)(C)C)C4)c3)n2cc1S(=O)(=O)C(C)(C)C (centres unmarked) [Example 153, tert-butyl 3-(N-(3-(6-(tert-butylsulfonyl)-7-methoxyimidazo[1,2-a]pyridin-3-yl)phenyl)sulfamoyl)pyrrolidine-1-carboxylate] | 2.5 to 20 nM | > 80% | > 20 nM | > 1000 nM | 
13 | COc1cc2ncc(-c3cccc(NS(=O)(=O)C4CCNC4)c3)n2cc1S(=O)(=O)C(C)(C)C (centres unmarked) [Example 154, N-(3-(6-(tert-butylsulfonyl)-7-methoxyimidazo[1,2-a]pyridin-3-yl)phenyl)pyrrolidine-3-sulfonamide] | 2.5 to 20 nM | > 80% | 2.5 to 20 nM | > 1000 nM | 
14 | COc1cc2ncc(-c3cccc(NS(=O)(=O)C4CN(C(=O)OC(C)(C)C)C4)c3)n2cc1S(=O)(=O)C(C)(C)C [Example 155, tert-butyl 3-(N-(3-(6-(tert-butylsulfonyl)-7-methoxyimidazo[1,2-a]pyridin-3-yl)phenyl)sulfamoyl)azetidine-1-carboxylate] | > 20 nM | > 80% | > 20 nM | > 1000 nM | 
15 | COc1cc2ncc(-c3cccc(NS(=O)(=O)C4CNC4)c3)n2cc1S(=O)(=O)C(C)(C)C [Example 156, N-(3-(6-(tert-butylsulfonyl)-7-methoxyimidazo[1,2-a]pyridin-3-yl)phenyl)azetidine-3-sulfonamide] | > 20 nM | > 80% | > 20 nM | > 1000 nM | 
16 | COc1cc2ncc(-c3cccc(NS(=O)(=O)C4CCN(C(=O)OC(C)(C)C)CC4)c3)n2cc1S(=O)(=O)C(C)(C)C [Example 157, tert-butyl 4-(N-(3-(6-(tert-butylsulfonyl)-7-methoxyimidazo[1,2-a]pyridin-3-yl)phenyl)sulfamoyl)piperidine-1-carboxylate] | > 20 nM | 55 to 80% | > 20 nM | > 1000 nM | 
17 | COc1cc2ncc(-c3cccc(NS(=O)(=O)C4CCNCC4)c3)n2cc1S(=O)(=O)C(C)(C)C [Example 158, N-(3-(6-(tert-butylsulfonyl)-7-methoxyimidazo[1,2-a]pyridin-3-yl)phenyl)piperidine-4-sulfonamide] | > 20 nM | > 80% | > 20 nM | > 1000 nM | 
18 | COc1cc2ncc(-c3cc(F)c(OC)c(NS(=O)(=O)CC4CC4)c3)n2cc1S(=O)(=O)C(C)(C)C [Example 159, N-(5-(6-(tert-butylsulfonyl)-7-methoxyimidazo[1,2-a]pyridin-3-yl)-3-fluoro-2-methoxyphenyl)-1-cyclopropylmethanesulfonamide] | < 1 nM | > 80% | < 1 nM | < 50 nM | 
19 | COc1cc2ncc(-c3cc(F)c(OC)c(NS(=O)(=O)CC4COC4)c3)n2cc1S(=O)(=O)C(C)(C)C [Example 160, N-(5-(6-(tert-butylsulfonyl)-7-methoxyimidazo[1,2-a]pyridin-3-yl)-3-fluoro-2-methoxyphenyl)-1-(oxetan-3-yl)methanesulfonamide] | < 1 nM | > 80% | < 1 nM | < 50 nM | 
20 | COc1cc2ncc(-c3cc(F)c(N)nc3F)n2cc1S(=O)(=O)N(C)C [Example 161, 3-(6-amino-2,5-difluoropyridin-3-yl)-7-methoxy-N,N-dimethylimidazo[1,2-a]pyridine-6-sulfonamide] | > 20 nM |  | > 20 nM | > 1000 nM | > 80%
21 | CCCS(=O)(=O)Nc1cc(-c2cnc3cc(OC)c(S(=O)(=O)N4CCOCC4)cn23)cc(F)c1OC [Example 162, N-(3-fluoro-2-methoxy-5-(7-methoxy-6-(morpholinosulfonyl)imidazo[1,2-a]pyridin-3-yl)phenyl)propane-1-sulfonamide] | 1 to 2.5 nM | 55 to 80% | 1 to 2.5 nM | 50 to 250 nM | 
22 | COc1cc2ncc(-c3cc(F)c(N)nc3F)n2cc1S(=O)(=O)N1CCOCC1 [Example 163, 3,6-difluoro-5-(7-methoxy-6-(morpholinosulfonyl)imidazo[1,2-a]pyridin-3-yl)pyridin-2-amine] | > 20 nM | > 80% | > 20 nM | > 1000 nM | 
23 | COc1cc2ncc(-c3cc(F)c(N)nc3F)n2cc1S(=O)(=O)N1CCNCC1 [Example 164, 3,6-difluoro-5-(7-methoxy-6-(piperazin-1-ylsulfonyl)imidazo[1,2-a]pyridin-3-yl)pyridin-2-amine] | > 20 nM | > 80% | > 20 nM | > 1000 nM | 
